These results are taken from PubChem BioAssay AID1996.

SMILES strings stand for the structures. ≈ marks a conversion by molar mass, not a printed value. A value given as a limit tells only on which side of the number the result lay.

The conditions of this series: buffer; pH 7.4; 200.0 µM.
For `Cc1ccc(N2CC(C(=O)N3CCOCC3)CC2=O)cc1Cl` (stereo unspecified), the solubility (kinetic) – broadly, the concentration staying in solution when a stock, usually in DMSO, is diluted into the medium – was more than 48.4 µg/mL.

`COc1ccc(NC(=O)CN2CCN(CC#N)CC2)cc1` had a kinetic solubility of more than 43.3 µg/mL.

In turn, `Cc1cc2ccccn2c1C(=O)c1cccc(F)c1` returned a solubility (kinetic) of 4.9 µg/mL (≈ 19.3 µM).

As for `COc1ccccc1-c1noc(CCCC(=O)NC2CCCC2)n1`, the solubility (kinetic) was 44.4 µg/mL (≈ 135 µM).

Molecule `CCOC(=O)/C(=C/c1ccc(OC(=O)c2ccncc2)cc1)C(C)=O` had a solubility (kinetic) of 41.8 µg/mL (≈ 123 µM).

For the molecule `COC(=O)C1CCN(c2cc(Cl)nc(N)n2)CC1`, the kinetic solubility worked out at 24.5 µg/mL (≈ 90.5 µM).

Consider `Cc1ccc2[nH]c3c(NCc4ccccc4)ncnc3c2c1`, for which the kinetic solubility amounted to 4.4 µg/mL (≈ 15.3 µM).

For the molecule `N/C(=N\OC(=O)/C=C/c1ccccc1Cl)c1cccnc1`, the solubility (kinetic) worked out at 14.9 µg/mL (≈ 49.4 µM).

`CC(=O)c1ccc(-n2ccc(=O)cc2)cc1` displayed a kinetic solubility of more than 32 µg/mL.

In turn, `COc1ccccc1C1CCN(C(=O)c2ccccc2)CC1` returned a solubility (kinetic) of 42.4 µg/mL (≈ 144 µM).

In the case of `Cc1ccc(NC(=O)c2ccc(C(=O)c3ccccc3)cc2)nc1`, the kinetic solubility is 5.1 µg/mL (≈ 16.1 µM).

In turn, `OC1(c2ccccn2)COc2ccccc2O1` (stereo unspecified) registered a kinetic solubility of 28.1 µg/mL (≈ 123 µM).

With `COc1cc(/C=C/c2ccc3cccc(O)c3n2)ccc1O`, the solubility (kinetic) came to 4.8 µg/mL (≈ 16.4 µM).

`COC(=O)C1CN(C(=O)COc2ccccc2)c2ccccc2O1` (stereo unspecified) displayed a solubility (kinetic) of 48.7 µg/mL (≈ 149 µM).

With `C[N+](C)(C)CCOP(=O)([O-])OP(=O)([O-])OC[C@H]1O[C@@H](n2ccc(N)nc2=O)[C@H](O)[C@@H]1O.[Na+]`, the solubility (kinetic) was 3.7 µg/mL.

As for `O=C(Nc1ccc(F)cc1)Nc1sccc1-c1nc2ccccc2s1`, the solubility (kinetic) was determined as 1.1 µg/mL (≈ 2.98 µM).

`Nc1ccc(C(=O)O)cc1` had a kinetic solubility of more than 20.6 µg/mL.

In turn, `CCCCn1c(N)c(N(CC)C(=O)C2CCC2)c(=O)[nH]c1=O` had a kinetic solubility of more than 46.3 µg/mL.

Regarding `CCOC(=O)Cc1csc(N(C)C)n1`, the kinetic solubility amounted to 25.4 µg/mL (≈ 119 µM).

In turn, `Cc1ccccc1Nc1nc(N)nc(COC(=O)c2ccco2)n1` had a kinetic solubility of more than 48.8 µg/mL.

The molecule `O=C(NC(=S)NCCO)c1sc2ccccc2c1Cl` had a kinetic solubility of 1.8 µg/mL (≈ 5.72 µM).

In turn, `S=C1NCN(CCc2ccccc2)CN1` gave a solubility (kinetic) of more than 33.2 µg/mL.

Turning to `O=C(NCCCN1CCCC1=O)Nc1ccc([N+](=O)[O-])cc1`, the solubility (kinetic) is more than 45.9 µg/mL.

`O=C(CNC(=O)c1ccc2c(c1)OCO2)NCCOc1ccc(Cl)cc1` came in with a kinetic solubility of 13.7 µg/mL (≈ 36.4 µM).

As for `COc1ccccc1NC(=O)N1C[C@@H]2C[C@@H](C1)c1cccc(=O)n1C2`, the solubility (kinetic) was more than 50.9 µg/mL.

On to `Br.Nc1nc2c(s1)CCc1ccccc1-2`, for which the kinetic solubility was 40.3 µg/mL.

For `COCc1cc(=O)[nH]c(SCCS(=O)(=O)c2ccc(C)cc2)n1`, the solubility (kinetic) is more than 53.2 µg/mL.

For the molecule `CN(CC(=O)NCc1cccnc1)S(=O)(=O)c1ccccc1`, the kinetic solubility is more than 47.9 µg/mL.

`COc1cc(NC(=O)Cc2ccccc2)ccc1NC(=O)c1ccccc1` registered a kinetic solubility of less than 0.4 µg/mL.

In turn, `CCOc1cc(Br)c(C(C)NC(=O)c2cccnc2)cc1OCC` (stereo unspecified) displayed a solubility (kinetic) of more than 59 µg/mL.

Take `COc1ccc(CNC(=O)c2sccc2-c2ccccc2)cc1OC`: the kinetic solubility was 33.7 µg/mL (≈ 95.3 µM).

For the molecule `CC(=O)NC(NC(=S)Nc1ccc(S(N)(=O)=O)cc1)C(Cl)(Cl)Cl` (stereo unspecified), the kinetic solubility turned out to be 62.6 µg/mL (≈ 149 µM).

In the case of `Cc1ccc(OCC(=O)O/N=C(\N)c2cccc([N+](=O)[O-])c2)cc1C`, the solubility (kinetic) is 1.8 µg/mL (≈ 5.24 µM).

In the case of `COc1ccc(OCC(=O)NC2CCCCCCC2)cc1`, the solubility (kinetic) came out at 37.7 µg/mL (≈ 129 µM).

As to `COC(=O)c1sccc1NC(=O)COc1ccc(F)cc1Cl`, the solubility (kinetic) was less than 0.7 µg/mL.

For `Cl.O=C(/C=C/c1cccc(F)c1)NCCCn1ccnc1`, the kinetic solubility was more than 46.5 µg/mL.

With `CCOC(=O)C1CCN(C(=O)Nc2cc(Cl)cc(Cl)c2)CC1`, the kinetic solubility was found to be 20.4 µg/mL (≈ 59.1 µM).

The molecule `O=C(CSc1ccccc1)Nc1ccc2c(c1)OCCO2` had a solubility (kinetic) of more than 45.2 µg/mL.

The molecule `CCc1ccc(CNCc2cccs2)cc1.Cl` returned a solubility (kinetic) of 23.9 µg/mL.

Turning to `CC(C)C(=O)Nc1cc(-c2nc3ncccc3o2)ccc1Cl`, the solubility (kinetic) was 6 µg/mL (≈ 19 µM).

As to `CC(C)N(C(=O)COC(=O)CCC(=O)c1cccs1)c1ccccc1`, the kinetic solubility is more than 53.9 µg/mL.
